Laboratory results reported in patent US5021458A, “Amine derivatives and fungicides containing the same” (Kaken Pharmaceutical Co., Ltd., priority 1984, dated 1991).
≈ marks a conversion by molar mass, not a printed value.

How the values were obtained:
Trichophyton rubrum = assay: In vitro antifungal activity test (Test Example 1), Sabouraud's agar, Trichophyton rubrum; assay type: cell-based; details: 168 h; (c) Trichophyton rubrum; 27° C., 7 days; read-out: minimal growth-inhibitory concentration (MIC)
Description: (§1) The antifungal activity of the compound of the present invention against Trichophyton metagrophytes, Trichophyton interdigitale and Trichophyton rubrum was tested employing Sabouraud's agar medium.
(§2) Each test compound shown in Table 4 was dissolved into 1 ml of ethanol and thereto distilled water was added to adjust to the concentration of 1000 μg/ml. In this way twofold dilution series was made, 1 ml of which was respectively taken into shale and therewith 9 ml of Sabouraud's agar medium was mixed to form plate medium.
(§3) In this plate medium was implanted 0.0005 ml of each test fungus at 2×10^6 spores/ml by the microplanter MIP-2 (Sakuma Seisakusho Co., Ltd.) and was incubated at 27° C. for 7 days. The results were shown in Table 2 as the minimal growth-inhibitory concentration (MIC, μg/ml).

[1] = test system: Trichophyton interdigitale; assay: In vitro antifungal activity test (Test Example 1), Sabouraud's agar, Trichophyton interdigitale; assay type: cell-based; details: 168 h; (b) Trichophyton interdigitale; 27° C., 7 days; read-out: minimal growth-inhibitory concentration (MIC)
Description: as §1, §2, §3

[2] = Side effect test on guinea pig skin (Test Example 3); assay type: in vivo, male Hartley guinea pig; details: 0.2 ml/day of 0.5 % solution in ethanol, once in a day for ten days; lightly rubbed guinea pig skin
Description: Two portions in the back of male Hartley guinea pig weighing 600° to 700 g were unhaired in an area of 4 cm^2 respectively in order to examine side effects of the test compounds. The next day unhaired portions were lightly rubbed with sandpaper. The test compounds obtained in Example 1 was dissolved in ethanol and 0.2 ml/day of the resultant 0.5 % solution was applied to one of the unhaired portions, while 0.2 ml/day of only ethanol was applied to the other portions, once in a day for ten days respectively.

[3] = test system: Trichophyton mentagrophytes; assay: Test on treatment of trichophytosis in guinea pig (Test Example 2); assay type: in vivo; details: 0.2 ml of 0.1 % solution in ethanol, once in a day for ten days since 48 hours after infection; guinea pig back skin
Description: In the back of male Hartley guinea pig weighing 600° to 700 g, four portions were unhaired in an area of 4 cm^2 respectively and rubbed lightly with sandpaper, to which the second generation of Trichophyton mentagrophytes incubated inversely from another guinea pig was infected at 1×10^5 spores per portion. The test compounds obtained in Example 1 was dissolved in ethanol and 0.2 ml of the resultant 0.1 % solution was applied to the infected portions once in a day for ten days since 48 hours after the infection. Test animal was killed 2 days after the last treatment and 10 tissue specimens from each infected portions were placed on Sabouraud's plates containing cycloheximide and kanamycin, which were incubated at 27° C. for 7 days.
inhibitory ratio ={1-(number of tissue specimens found fungi/number of tissue specimens incubated inversely)}×100

[4] = test system: Trichophyton mentagrophytes; assay: In vitro antifungal activity test (Test Example 1), Sabouraud's agar, Trichophyton mentagrophytes; assay type: cell-based; details: 168 h; (a) Trichophyton mentagrophytes; 27° C., 7 days; read-out: minimal growth-inhibitory concentration (MIC)
Description: as §1, §2, §3

Structure (SMILES)	MIC (Trichophyton rubrum) [µg/mL]	MIC [1] [µg/mL]	MIC [4] [µg/mL]	side effects [2]	inhibitory ratio [3] [%]
CN(Cc1ccc(C(C)(C)C)cc1)Cc1ccc(I)c2ccccc12 [Example 7]	0.39 (≈ 0.88 µM)	0.39 (≈ 0.88 µM)	0.78 (≈ 1.76 µM)	–	–
CN(Cc1ccc(C(C)(C)C)cc1)Cc1ccc2ccccc2c1 [Example 10]	0.39 (≈ 1.23 µM)	1.56 (≈ 4.91 µM)	1.56 (≈ 4.91 µM)	–	–
Cc1cccc(CN(C)Cc2cccc3ccccc23)c1 [Example 13]	12.5 (≈ 45.4 µM)	25 (≈ 90.8 µM)	25 (≈ 90.8 µM)	–	–
CN(Cc1cccc(C(F)(F)F)c1)Cc1cccc2ccccc12 [Example 14]	6.25 (≈ 19 µM)	6.25 (≈ 19 µM)	12.5 (≈ 38 µM)	–	–
Cc1ccc(CN(C)Cc2cccc3ccccc23)cc1 [Example 15]	0.39 (≈ 1.42 µM)	3.13 (≈ 11.4 µM)	0.78 (≈ 2.83 µM)	–	–
CN(Cc1ccc(C2CCCCC2)cc1)Cc1cccc2ccccc12 [Example 16]	1.56 (≈ 4.54 µM)	1.56 (≈ 4.54 µM)	3.13 (≈ 9.11 µM)	–	–
CN(Cc1ccc(Cl)c(Cl)c1)Cc1cccc2ccccc12 [Example 17]	1.56 (≈ 4.72 µM)	1.56 (≈ 4.72 µM)	1.56 (≈ 4.72 µM)	–	–
CCCCN(Cc1ccc(C(C)(C)C)cc1)Cc1cccc2ccccc12 [Example 20]	3.13 (≈ 8.71 µM)	6.25 (≈ 17.4 µM)	6.25 (≈ 17.4 µM)	–	–
Cc1ccc(CN(C)Cc2cccc3ccccc23)cc1C [Example 25]	0.39 (≈ 1.35 µM)	0.78 (≈ 2.7 µM)	0.78 (≈ 2.7 µM)	–	–
Cc1cc(C)cc(CN(C)Cc2cccc3ccccc23)c1 [Example 26]	6.25 (≈ 21.6 µM)	12.5 (≈ 43.2 µM)	12.5 (≈ 43.2 µM)	–	–
CN(Cc1ccc(C(C)(C)C)cc1)Cc1c(O)ccc2ccccc12.Cl [Example 28, N-(4-tert-butylbenzyl)-N-methyl-2-hydroxy-1-naphthylmethylamine hydrochloride]	6.25	12.5	25	–	–
CCN(Cc1ccc(C(C)(C)C)cc1)Cc1csc2ccccc12 [Example 30]	0.78 (≈ 2.31 µM)	–	0.78 (≈ 2.31 µM)	–	–
CN(Cc1ccc(C(C)(C)C)cc1)Cc1cccc2ccsc12 [Example 35]	0.78 (≈ 2.41 µM)	–	0.78 (≈ 2.41 µM)	–	–
CN(Cc1ccc(C(C)(C)C)cc1)Cc1cccc2c1CCCC2 [Example 39]	0.39 (≈ 1.21 µM)	–	0.39 (≈ 1.21 µM)	–	–
Cc1ccc(CN(C)Cc2ccc3ccccc3c2)c2ccccc12 [Example 49]	0.39 (≈ 1.2 µM)	–	0.39 (≈ 1.2 µM)	–	–
CC(c1cccc2ccccc12)N(C)Cc1ccc2ccccc2c1 (stereo not shown) [Example 51]	0.2 (≈ 0.615 µM)	–	0.39 (≈ 1.2 µM)	–	–
CCN(Cc1ccc2c(c1)CCCC2)Cc1cccc2ccccc12 [Example 56]	0.2 (≈ 0.607 µM)	–	0.2 (≈ 0.607 µM)	–	–

Further compounds by falling MIC (Trichophyton rubrum), results first:

MIC (Trichophyton rubrum) [µg/mL]	MIC [1] [µg/mL]	MIC [4] [µg/mL]	Structure (SMILES)	side effects [2]	inhibitory ratio [3] [%]
0.2 (≈ 0.579 µM)	0.2 (≈ 0.579 µM)	0.78 (≈ 2.26 µM)	CCCN(Cc1ccc(C(C)(C)C)cc1)Cc1cccc2ccccc12 [Example 19]	–	–
0.2 (≈ 0.607 µM)	–	0.2 (≈ 0.607 µM)	CN(Cc1ccc2ccccc2c1)Cc1ccc(F)c2ccccc12 [Example 43]	–	–
0.1 (≈ 0.302 µM)	0.1 (≈ 0.302 µM)	0.2 (≈ 0.603 µM)	Cc1ccc2ccccc2c1CN(C)Cc1ccc(C(C)(C)C)cc1 [Example 2]	–	–
0.1 (≈ 0.346 µM)	0.2 (≈ 0.691 µM)	0.1 (≈ 0.346 µM)	CCc1ccc(CN(C)Cc2cccc3ccccc23)cc1 [Example 23]	–	–
0.1 (≈ 0.315 µM)	0.2 (≈ 0.63 µM)	0.1 (≈ 0.315 µM)	CCCCc1ccc(CN(C)Cc2cccc3ccccc23)cc1 [Example 24]	–	–
0.1 (≈ 0.296 µM)	–	0.2 (≈ 0.593 µM)	Cc1cccc2c(CN(C)Cc3ccc(C(C)(C)C)cc3)csc12 [Example 33]	–	–
0.1 (≈ 0.317 µM)	–	0.1 (≈ 0.317 µM)	CN(Cc1ccc2c(c1)CCCC2)Cc1cccc2ccccc12 [Example 54]	–	–
0.1 (≈ 0.307 µM)	–	0.39 (≈ 1.2 µM)	CCN(Cc1ccc2ccccc2c1)Cc1cccc2ccccc12 [Example 63]	–	–
0.05 (≈ 0.126 µM)	0.2 (≈ 0.505 µM)	0.2 (≈ 0.505 µM)	CN(Cc1ccc(C(C)(C)C)cc1)Cc1ccc(Br)c2ccccc12 [Example 6]	–	–
0.05 (≈ 0.155 µM)	–	0.05 (≈ 0.155 µM)	CN(Cc1ccc(C(C)(C)C)cc1)Cc1csc2ccccc12 [Example 29, N-4-tert-Butylbenzyl-N-methyl-3-benzo[b]-thienylmethylamine]	–	–
0.025 (≈ 0.0754 µM)	0.05 (≈ 0.151 µM)	0.1 (≈ 0.302 µM)	Cc1ccc(CN(C)Cc2ccc(C(C)(C)C)cc2)c2ccccc12 [Example 3]	–	–
0.025 (≈ 0.071 µM)	0.1 (≈ 0.284 µM)	0.1 (≈ 0.284 µM)	CN(Cc1ccc(C(C)(C)C)cc1)Cc1ccc(Cl)c2ccccc12 [Example 5]	–	–
0.025 (≈ 0.069 µM)	0.05 (≈ 0.138 µM)	0.1 (≈ 0.276 µM)	CN(Cc1ccc(C(C)(C)C)cc1)Cc1cccc2c([N+](=O)[O-])cccc12 [Example 8]	–	–
0.025 (≈ 0.0773 µM)	–	0.025 (≈ 0.0773 µM)	CN(Cc1ccc(C(C)(C)C)cc1)Cc1cccc2sccc12 [Example 34]	–	–
0.025 (≈ 0.0773 µM)	–	0.05 (≈ 0.155 µM)	CN(Cc1ccc(C(C)(C)C)s1)Cc1cccc2ccccc12 [Example 69]	–	–
0.0125 (≈ 0.0412 µM)	0.1 (≈ 0.33 µM)	0.025 (≈ 0.0824 µM)	CC(C)c1ccc(CN(C)Cc2cccc3ccccc23)cc1 [Example 22, N-4-Isopropylbenzyl-N-methyl-1-naphthylmethylamine]	–	–
0.006 (≈ 0.0179 µM)	0.006 (≈ 0.0179 µM)	0.025 (≈ 0.0745 µM)	CN(Cc1ccc(C(C)(C)C)cc1)Cc1ccc(F)c2ccccc12 [Example 4]	–	–
0.006 (≈ 0.0181 µM)	0.0125 (≈ 0.0377 µM)	0.0125 (≈ 0.0377 µM)	CCC(C)(C)c1ccc(CN(C)Cc2cccc3ccccc23)cc1 [Example 12, N-Methyl-N-4-tert-pentylbenzyl-1-naphthylmethylamine]	–	–
0.006 (≈ 0.0181 µM)	0.05 (≈ 0.151 µM)	0.1 (≈ 0.302 µM)	CCN(Cc1ccc(C(C)(C)C)cc1)Cc1cccc2ccccc12 [Example 18]	–	–
0.003	0.006	0.0125	CN(Cc1ccc(C(C)(C)C)cc1)Cc1cccc2ccccc12.Cl [Example 1, N-(4-tert-butylbenzyl)-N-methyl-1-naphthylmethylamine hydrochloride]	side effects such as, for instance, erythema and papula were not observed	82
0.003 (≈ 0.00905 µM)	0.025 (≈ 0.0754 µM)	0.025 (≈ 0.0754 µM)	CC(c1cccc2ccccc12)N(C)Cc1ccc(C(C)(C)C)cc1 (stereo not shown) [Example 9, N-4-tert-Butylbenzyl-N-methyl-1-(1-naphthyl)ethylamine]	–	–
